In the METLIN SMRT retention time set (Domingo-Almenara et al. 2019):

test: gradient 5% acetonitrile 3 min, to 50% in 2 min, to 85% in 15 min, held 3 min, 100 µL/min; conditions: column: Zorbax Extend-C18 2.1 x 50 mm; eluents: water / acetonitrile, 0.1% formic acid
Procedure, shortened: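 Retention time was recorded from adduct peaks, which were picked computationally and each inspected manually. Pure standards ran in mixtures of ~100 molecules on HPLC coupled to a quadrupole time-of-flight mass spectrometer, in positive and negative ionization mode, through a Zorbax Extend-C18 column (2.1 × 50 mm, 1.8 μm) at 100 μL/min. Eluents were water and acetonitrile, each with 0.1% formic acid.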

Row | RP-LC retention time [s] | Compound
1 | 659 | O=C(NCc1cccnc1)C1CCN(S(=O)(=O)c2ccc(-c3noc(C4CC4)n3)cc2)CC1
2 | 1040 | CCCOc1ccc(Br)cc1-c1cc(-c2ccc(Cl)cc2)[nH]c1-c1ccncc1
3 | 946 | CCS(=O)(=O)N1CC(=O)N(c2ccc(Cl)cc2C)C(C)(C(=O)NC2CCCCC2)C1 (configuration not stated)
4 | 679 | O=C(/C=C/c1cccc(S(=O)(=O)Nc2ccccc2)c1)NO
5 | 690 | O=C(Nc1ccc(Br)cc1F)N1CCC(n2cnc3cccnc32)CC1
6 | 787 | CCc1nc(-c2csc(S(=O)(=O)N3CCCC(C(=O)NC4CC4)C3)c2)no1 (configuration not stated)
7 | 599 | CCN(CCN(C)C)C(=O)c1cc2c(s1)N(CC)CCCC2
8 | 721 | CCOc1ccc(CC(=O)NC2CCN(c3cc(-c4ccccc4)[nH]n3)C2)cc1OCC (configuration not stated)
9 | 554 | CC(=O)N1CCCC(C(=O)N2CCOCC2)C1 (configuration not stated)
10 | 587 | Cc1cc(C)c2c(n1)SCC(=O)N2CC(=O)NCCCN(C)Cc1ccccc1
11 | 654 | COc1ccccc1CNC(=O)Cn1c(N2CCOCC2)nc(C)cc1=O
12 | 899 | CNC(=O)c1cccc(NC(=O)N2CCC(Oc3ccccc3Cl)CC2)c1
13 | 720 | Cc1c(Cl)cccc1NC(=O)NCC1CCOCC1
14 | 833 | O=C(NCCc1cccs1)C1CCN(Cc2cc3ccccc3n2Cc2cccc(Cl)c2)CC1
15 | 740 | O=C1CC(C(=O)N2CCN(Cc3ccccc3)CC2)CN1CCc1ccccc1 (configuration not stated)
16 | 722 | CCC(=O)NCc1csc(C2CCN(C(=O)c3ccc(Br)cc3)CC2)n1
17 | 736 | COc1ccc(Nc2c(-c3nc(C)no3)cnc3nc(C)ccc23)cc1Cl
18 | 673 | Cc1cccc(Nc2nc3ccncc3n(Cc3ccccc3)c2=O)c1
19 | 615 | Cc1ccc(CN2CC3(CCCCC3)CC2COc2ccncc2)nc1 (configuration not stated)
20 | 619 | CO[C@H]1C(=O)N(C2CCN(S(=O)(=O)c3cccs3)CC2)[C@H]1c1ccncc1
21 | 710 | Cc1cc2c(cc1S(=O)(=O)N1CCCC1C(=O)N1CCCCC1)OC(C)C(=O)N2 (configuration not stated)
22 | 1110 | CCCc1noc(C2CCCCN2CC(=O)Nc2ccc(F)c(Cl)c2)n1 (configuration not stated)

Row | RP-LC retention time [s] | Compound
23 | 1020 | O=C(Nc1cnc(N2CCCCCC2)nc1)c1cc(F)cc(F)c1
24 | 631 | CC(C)N1CCC(c2nnc3n2CCN(S(=O)(=O)c2ccccc2C(F)(F)F)C3)C1 (configuration not stated)
25 | 888 | CSc1cccc(NC(=O)N2CCC[C@@H]2C(=O)NCc2csc(-c3ccccc3)n2)c1
26 | 683 | Cc1nn(-c2ccc(F)cc2)c(C)c1S(=O)(=O)N1CCN(c2ccccn2)CC1
27 | 1110 | CCc1sc(NC(=O)Cc2ccc(F)cc2)nc1-c1ccccc1
28 | 646 | Cc1ccn2c(NC(=O)c3ccccc3)c(-c3ccccc3)nc2c1
29 | 565 | CCOC(=O)c1cnc2c(C)cc(C)cc2c1NCCCN(C)C
30 | 693 | Cc1cc(OCC(=O)N2CCN(c3ccccn3)CC2)nc2c1c(C)nn2-c1ccccc1
31 | 882 | Cc1ccc(N2CCC(NC(=O)c3ccc(Br)o3)C2=O)cc1C (configuration not stated)
32 | 620 | CC1CC(C)CN(CCCNC(=O)Cn2c(=O)c3cccn3c3ccccc32)C1 (configuration not stated)
33 | 896 | CCN(CC)C(=O)Oc1ccc(C(=O)Nc2cccc3ccccc23)cc1
34 | 697 | CCn1cnnc1C1CCCCN1C(=O)CCc1c[nH]c2ccccc12 (configuration not stated)
35 | 957 | O=C(NCc1ccc(F)cc1)c1cc(N2CCCC2)n2nccc2n1
36 | 748 | O=C(NC1CCCCC1)C1COC2(CCN(C(=O)c3ccco3)CC2)N1C(=O)c1ccccc1 (configuration not stated)
37 | 869 | Cc1cc2c(=O)n(CC(=O)Nc3ccc(Br)cc3F)ccc2s1
38 | 595 | CCCCNC(=O)c1cc(NC(=O)CC)cc2nc(C)ccc12
39 | 663 | CCOc1ccc2ncc(C#N)c(NCc3ccc(OC)c(OC)c3)c2c1
40 | 990 | COc1cccc(CNC(=O)C2(C)CCCN(C(=O)Nc3cc(Cl)ccc3OC)C2)c1 (configuration not stated)
41 | 881 | O=C1/C(=C/c2ccc(Cl)c(Cl)c2)CN(C(=O)CCN2CCOCC2)C/C1=C\c1ccc(Cl)c(Cl)c1
42 | 712 | O=C(NC1CCN(c2cc(-c3ccc(Cl)cc3)[nH]n2)C1)c1ccccc1 (configuration not stated)
43 | 974 | CCC(=O)Nc1cc2c(cc1Sc1ccc(OC)cc1)n(C)c(=O)n2C
44 | 752 | COc1ccc(S(=O)(=O)N2CCC3(CC2)CC(C)(O)CCO3)cc1 (configuration not stated)

Row | RP-LC retention time [s] | Compound
45 | 754 | CCn1cnc2ccc(-c3noc(COc4ccc(F)cc4)n3)cc21
46 | 872 | Cc1ccc(NC(=O)N2CCC(n3cnc4c(C)cccc4c3=O)CC2)cc1C
47 | 1010 | Cc1ccc(Cl)cc1NS(=O)(=O)c1ccc(-c2c(C)noc2C)cc1
48 | 828 | COc1ccc(CCNC(=O)C2CCCN(S(=O)(=O)c3ccc4c(ccn4C)c3)C2)cc1OC (configuration not stated)
49 | 736 | O=C1C=C(NCCc2ccccc2)c2ccccc2C1=O
50 | 751 | CC1(C(=O)NCc2ccc(F)cc2)Cn2cnc(C(=O)NCc3ccccc3F)c2C(=O)N1C1CC1 (configuration not stated)
51 | 921 | CCOc1nccnc1NC1CCN(C(=O)c2cccs2)CC1
52 | 667 | COc1ccc(S(=O)(=O)N2CCC(c3ccncc3)CC2)cc1Cl
53 | 909 | Cc1ccc(NC(=O)Cn2c(=O)nc(N3CCC(C)CC3)c3ccccc32)cc1C
54 | 618 | CCN1CCC2(CC1)N=C(c1ccc(Br)cc1)CC(c1cccc(OC)c1O)N2 (configuration not stated)
55 | 667 | COCCCNC(=O)c1ccc2c(c1)CCCN2S(C)(=O)=O
56 | 742 | COc1ccc(-c2nc3sc(C(=O)N(C)C)c(C)n3c2NC(C)(C)C)cc1
57 | 593 | CC(=O)Nc1ccc(S(=O)(=O)N2CCCCC2c2cccnc2)cc1 (configuration not stated)
58 | 828 | Cc1cc(Cl)ccc1OCC(=O)NCC1CCOCC1
59 | 957 | CCOC(=O)COc1ccccc1C1C(C(=O)OC)=C(C)NC2=C1C(=O)c1ccccc12 (configuration not stated)
60 | 777 | CCOc1ccc(S(=O)(=O)N2CCCC(C(=O)N3CCOCC3)C2)cc1 (configuration not stated)
61 | 644 | CCOC(=O)c1c(S(=O)(=O)N2CCC(C(=O)Nc3cc(C)ccn3)CC2)c(C)n(C)c1C
62 | 716 | CSc1ccc(CNC(=O)Cc2nnc(-c3ccc4ncccc4c3)o2)cc1
63 | 1360 | CC1CCN(c2cc(-c3nc(-c4ccccc4)no3)c3ccccc3n2)CC1
64 | 678 | CCCNC(=O)C1CCN(c2ccc(SCC(=O)Nc3cccc(Cl)c3C)nn2)CC1
65 | 801 | COCCCNC(=O)C1CCN(c2nc3ccc(-c4cccs4)nc3s2)CC1

Row | Compound | RP-LC retention time [s]
66 | Cn1cc(C(=O)NCc2ccccn2)c2cccnc21 | 552
67 | CCn1cc(C(=O)Nc2cccc(Cl)c2)c2cccnc21 | 938
